Measured values from article PMC12086609, “Characterization of the Structure and Function of the Photosynthetic RC–LH1 Core Supercomplex From Rhodospirillum rubrum” (Physiologia Plantarum, 2025).

Tests used:
[1] = biological target: T1, Rsp. rubrum RC–LH1 supercomplex (RC–LH1 monomer) (Rhodospirillum rubrum, UniProt P02947+P10717+Q2RQ23+Q2RQ26); assay: cytochrome c2 oxidation at […] nm under […] nm light; assay type: biochemical; details: QB site of RC (L/M); 0-40 μM UQ2, 15 nM RC–LH1, 30 μM reduced horse-heart cytochrome c, HEPES pH 8.0, 0.01% β-DDM; apparent Km not determined
T1 construct: gene pufL; native purification from phototrophic cells (beta-DDM, sucrose gradient); closed ring of 16 alpha-beta pairs around RC L, M, H; modelled alpha 45 and beta 44 residues
T1 sequence (P10717 2-276): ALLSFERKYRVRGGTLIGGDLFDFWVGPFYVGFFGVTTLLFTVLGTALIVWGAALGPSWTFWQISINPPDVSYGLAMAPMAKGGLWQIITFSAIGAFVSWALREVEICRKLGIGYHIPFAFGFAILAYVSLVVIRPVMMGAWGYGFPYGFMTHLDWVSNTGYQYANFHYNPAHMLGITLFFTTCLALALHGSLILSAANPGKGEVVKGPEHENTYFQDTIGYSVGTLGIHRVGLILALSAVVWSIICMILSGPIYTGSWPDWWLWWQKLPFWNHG
T1 sequence (Q2RQ26 1-306): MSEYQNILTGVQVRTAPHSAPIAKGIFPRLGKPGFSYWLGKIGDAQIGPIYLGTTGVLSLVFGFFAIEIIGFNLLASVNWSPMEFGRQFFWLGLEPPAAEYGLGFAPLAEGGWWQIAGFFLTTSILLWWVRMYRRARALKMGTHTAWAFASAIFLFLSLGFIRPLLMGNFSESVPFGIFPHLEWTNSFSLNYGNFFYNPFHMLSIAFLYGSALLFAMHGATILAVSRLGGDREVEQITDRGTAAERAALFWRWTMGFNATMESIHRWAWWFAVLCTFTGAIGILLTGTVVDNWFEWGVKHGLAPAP
T1 sequence (Q2RWS4 1-257 partner): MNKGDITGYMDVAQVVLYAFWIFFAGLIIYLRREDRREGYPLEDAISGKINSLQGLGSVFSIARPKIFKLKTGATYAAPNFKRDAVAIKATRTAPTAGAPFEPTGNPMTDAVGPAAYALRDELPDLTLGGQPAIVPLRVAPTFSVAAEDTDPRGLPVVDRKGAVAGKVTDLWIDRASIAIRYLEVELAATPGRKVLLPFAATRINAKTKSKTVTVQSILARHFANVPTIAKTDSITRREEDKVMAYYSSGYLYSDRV
T1 sequence (P02947 1-52): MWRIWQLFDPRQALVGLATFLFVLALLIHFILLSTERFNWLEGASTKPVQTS
T1 sequence (Q2RQ23 3-56): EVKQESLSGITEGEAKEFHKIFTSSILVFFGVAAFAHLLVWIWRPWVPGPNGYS

[2] = biological target: T2, Rba. sphaeroides WT RC–LH1 monomer (Cereibacter sphaeroides, UniProt P0C0Y8+P0C0Y9); assay: cytochrome c2 oxidation at […] nm under […] nm light; assay type: biochemical; details: QB site of RC (L/M); 0-40 μM UQ2, 15 nM RC–LH1, 30 μM reduced horse-heart cytochrome c, HEPES pH 8.0, 0.01% β-DDM; apparent Km not determined
T2 construct: gene pufL; native RC–LH1 monomer with open LH1 ring (contains PufX); with Reaction center protein H chain; Light-harvesting protein B-875 alpha chain (LH1 alpha); Light-harvesting protein B-875 beta chain (LH1 beta); Intrinsic membrane protein PufX

[3] = biological target: T1, Rsp. rubrum RC–LH1 supercomplex (RC–LH1 monomer); assay: cryo-EM structure, […] Å; assay type: binding; details: native carotenoid of LH1, one per alpha-beta heterodimer (16)

Structure (SMILES)	cytochrome c oxidation at 550 nm under 880 nm light [1]	cytochrome c2 oxidation at 550 nm under 880 nm light [2]	cryo-EM structure, 3.0 Å [3]
COC1=C(OC)C(=O)C(C/C=C(\C)CCC=C(C)C)=C(C)C1=O [ubiquinone‐2]	maximum quinone/quinol exchange rate for Rsp. rubrum RC–LH1 monomer	open RC–LH1 monomer of Rba. sphaeroides WT	–
COC(C)(C)C/C=C/C(C)=C/C=C/C(C)=C/C=C/C(C)=C/C=C/C=C(C)/C=C/C=C(C)/C=C/C=C(C)/C=C/CC(C)(C)OC [spirilloxanthin]	–	–	The LH1 α‐polypeptide is light blue sky, the β‐polypeptide is pink, spirilloxanthin is green
